Measured values: patent US20130338130A1 (priority 2009, published 2013)
≈ marks a conversion by molar mass, not a printed value. Like-named read-outs stand apart in the source and are kept apart here.

How the values were obtained:
[1] = tested on: ATCC strain 43300 Staphylococcus aureus; conditions: ATCC strain 43300 (MRSA); cited from earlier work
[2] = tested on: ATCC strain 43300 Staphylococcus aureus; conditions: for survival (cfu/ml): 24 hours, triplicate platings
Protocol: Additional antibiotic was added every 24 hours. The growth periods tested were 24 (FIG. 5), 48, 72, 96 and 120 hours.
(§1) USP<51> Antimicrobial Effectiveness protocol was used as the template experimental paradigm. […] All concentrations were plated out to the 10^−7 dilutions to ascertain cfu/ml. […] Additional antibiotic was added at the initial concentration every 24 hours.
ATCC strain 43300 Staphylococcus aureus was streaked out for isolations. An isolated colony was chosen, streaked again and incubated. Isolate was chosen and then diluted to a McFarland standard of one. The estimated value was then taken to inoculate tubes containing growth media and 12, 30 or 60 μg/ml methicillin with approximately 10^5 cfu/ml. These tubes were incubated and plated for counting cfu.
Material was calculated on a 10 ml volume. Sterile methicillin was added to each experimental condition to a final concentration of 12, 30 or 60 μg/ml antibiotic. Lactose Broth positive controls both with and without the 12 μg/ml, 30 μg/ml, 60 μg/ml antibiotic were inoculated with MRSA. […] Tubes were set up in singlet, but plated in triplicate, as described below.
All tubes were then inoculated with a dilution of the selected ATCC strain 43300 Staphylococcus aureus clone giving a final level of colony forming units of 1.49×10^5/ml (log=5.17). The tubes were incubated at 25° C. and mixed periodically. Antibiotic was re-inoculated every 24 hours at the initial concentration to maintain pressure on the organism. Plating was done at 24, 48, 72, and 120 hours. Each condition was plated by diluting 1 ml of growth material into 9 ml of MLB diluent broth. […] This mixture was serial diluted down to 10^−7 with 1 ml placed in triplicate in a sterile petri dish at each dilution point. 20 mls of TSA was added to each dilution, swirled and allowed to solidify. All dilutions were placed in a 35° C. incubator for 24 to 72 hours. Bacterial colonies on each plate were counted and the average taken then changed into log format. […] Graphs were recorded as log of 5.2 for TNTC to show comparison among the other data points.
The tubes were spun down at 5000 rpm for 10 minutes. The supernatant was then decanted into 90 mls of Mueller-Hinton broth with 6 μg/ml methicillin. This is for enrichment and the recovery of any MRSA cells that may be present wether healthy or stressed. The pellet had 10 mls Mueller-Hinton broth with 6 μg/ml methicillin added to it to recover any cells that may be present. Both vessels were incubated at 35° C. for 48 hours and plated each 24 hours. Each vessel was plated at 10 dilutions to obtain a 1 cfu detection limit. Since all vessels were at a 1/10 dilution in the enrichment solution plating each vessel in this manner gave us a detection limit of 1 cfu/ml. […] This time point for graphing purposes will be reported as 0 logs.

[3] = tested on: ATCC strain 43300 Staphylococcus aureus
Protocol: Additional antibiotic was added every 24 hours. The growth periods tested were 24 (see FIG. 4), 48, 72, 96 and 120 hours.
as §1
ATCC strain 43300 Staphylococcus aureus was streaked out for isolations. An isolated colony was chosen, streaked again and incubated. Isolate was chosen and then diluted to a McFarland standard of one. The estimated value was then taken to inoculate tubes containing growth media and 12, 30 or 60 μg/ml oxacillin with approximately 10^5 cfu/ml. These tubes were incubated and plated for counting cfu. A clone having no observed log reduction in cfu was selected for the rest of the experiment.
Material was calculated on a 10 ml volume. Sterile oxacillin was added to each experimental condition to a final concentration of 12, 30 or 60 μg/ml antibiotic.
All tubes were then inoculated with a dilution of the selected ATCC strain 43300 Staphylococcus aureus clone giving a final level of colony forming units of 3.3×10^5/ml (log=5.52). The tubes were incubated at 25° C. and mixed periodically. Antibiotic was re-inoculated every 24 hours at the initial concentration to maintain pressure on the organism. Plating was done at 24, 48, 72, and 120 hours. Each condition was plated by diluting 1 ml of growth material into 9 ml of MLB diluent broth. […] This mixture was serial diluted down to 10^−7 with 1 ml placed in triplicate in a sterile petri dish at each dilution point. 20 mls of TSA was added to each dilution, swirled and allowed to solidify. All dilutions were placed in a 35° C. incubator for 24 to 72 hours. Bacterial colonies on each plate were counted and the average taken then changed into log format. Any cfu/ml observed greater than 3.3×10^5 (log=5.5) were recorded as >3.3×10^5.
The tube was then taken out of the experiment and tested for ATCC strain 43300 Staphylococcus growth. The tube was spun down at 5000 rpm for 10 minutes. The supernatant was then decanted into 90 mls of Mueller-Hinton broth with 6 μg/ml oxacillin. This is for enrichment and the recovery of any MRSA cells that may be present whether healthy or stressed. The pellet had 10 mls Mueller-Hinton broth with 6 μg/ml oxacillin added to it to recover any cells that may be present. Both vessels were incubated at 35° C. for 48 hours followed by plating every 24 hours. Each vessel was plated at 10 dilutions to obtain a 1 cfu detection limit.

In the case of `COc1cccc(OC)c1C(=O)N[C@@H]1C(=O)N2[C@@H]1SC(C)(C)[C@@H]2C(=O)O` [methicillin, reference compound], the MIC [1] is given as 6 µg/mL (≈ 15.8 µM), the “survival (cfu/ml)” value ([2]; 12 μg/ml methicillin (re-added every 24 hours) + MSM (% in label), inoculum 1.49×10^5/ml) is given as “TNTC” and the “survival (cfu/ml)” value ([2]; 30 μg/ml methicillin + MSM (% in label)) is given as “TNTC”. The “survival (cfu/ml)” value ([2]; 60 μg/ml methicillin + MSM (% in label)) was “TNTC” and the “decrease in colony forming units from the initial inoculums value” ([2]; methicillin alone, 12 μg/ml, 30 μg/ml and 60 μg/ml) was “no significant decrease in colony forming units”.
For `Cc1onc(-c2ccccc2)c1C(=O)N[C@@H]1C(=O)N2[C@@H]1SC(C)(C)[C@@H]2C(=O)O` [oxacillin, reference compound], the MIC [1] is given as 6 µg/mL (≈ 14.9 µM), the “survival (cfu/ml)” value ([3]; 12 μg/ml oxacillin (re-added every 24 hours) + MSM (% in label), 24 hours, three columns = triplicate platings, inoculum 3.3×10^5/ml) is given as >3.3 × 10^5 cfu/ml and the “survival, Average Log” value ([3]; 12 μg/ml oxacillin + MSM (% in label), 24 hours) is given as 5.5 Log. The “survival, Average Log” value ([3]; 12 μg/ml oxacillin + MSM (% in label), 48 hours) was 5.5 Log, the “survival (cfu/ml)” value ([3]; 12 μg/ml oxacillin + MSM (% in label), 48 hours, triplicate platings) was >3.3 × 10^5 cfu/ml and the “survival, Average Log” value ([3]; 12 μg/ml oxacillin + MSM (% in label), 72 hours) was 5.5 Log. For the same molecule, the “survival (cfu/ml)” value ([3]; 12 μg/ml oxacillin + MSM (% in label), 72 hours, triplicate platings) was >3.3 × 10^5 cfu/ml, the “survival, Average Log” value ([3]; 12 μg/ml oxacillin + MSM (% in label), 96 hours) was 5.5 Log and the “survival (cfu/ml)” value ([3]; 12 μg/ml oxacillin + MSM (% in label), 96 hours, triplicate platings) was >3.3 × 10^5 cfu/ml. The “survival, Average Log” value ([3]; 12 μg/ml oxacillin + MSM (% in label), 120 hours) was 5.5 Log, the “survival (cfu/ml)” value ([3]; 12 μg/ml oxacillin + MSM (% in label), 120 hours, triplicate platings) was >3.3 × 10^5 cfu/ml and the “survival, Average Log” value ([3]; 30 μg/ml oxacillin + MSM (% in label), 24 hours) was 5.5 Log. The “survival (cfu/ml)” value ([3]; 30 μg/ml oxacillin + MSM (% in label), 24 hours, triplicate platings) was >3.3 × 10^5 cfu/ml, the “survival, Average Log” value ([3]; 30 μg/ml oxacillin + MSM (% in label), 48 hours) was 5.5 Log and the “survival (cfu/ml)” value ([3]; 30 μg/ml oxacillin + MSM (% in label), 48 hours, triplicate platings) was >3.3 × 10^5 cfu/ml. The “survival, Average Log” value ([3]; 30 μg/ml oxacillin + MSM (% in label), 72 hours) was 5.5 Log, the “survival (cfu/ml)” value ([3]; 30 μg/ml oxacillin + MSM (% in label), 72 hours, triplicate platings) was >3.3 × 10^5 cfu/ml and the “survival, Average Log” value ([3]; 30 μg/ml oxacillin + MSM (% in label), 96 hours) was 5.5 Log. For the same molecule, the “survival (cfu/ml)” value ([3]; 30 μg/ml oxacillin + MSM (% in label), 96 hours, triplicate platings) was >3.3 × 10^5 cfu/ml, the “survival, Average Log” value ([3]; 30 μg/ml oxacillin + MSM (% in label), 120 hours) was 5.5 Log and the “survival (cfu/ml)” value ([3]; 30 μg/ml oxacillin + MSM (% in label), 120 hours, triplicate platings) was >3.3 × 10^5 cfu/ml. The “survival, Average Log” value ([3]; 60 μg/ml oxacillin + MSM (% in label), 24 hours) was 5.5 Log, the “survival (cfu/ml)” value ([3]; 60 μg/ml oxacillin + MSM (% in label), 24 hours, triplicate platings) was >3.3 × 10^5 cfu/ml and the “survival, Average Log” value ([3]; 60 μg/ml oxacillin + MSM (% in label), 48 hours) was 5.5 Log. The “survival (cfu/ml)” value ([3]; 60 μg/ml oxacillin + MSM (% in label), 48 hours, triplicate platings) was >3.3 × 10^5 cfu/ml, the “survival, Average Log” value ([3]; 60 μg/ml oxacillin + MSM (% in label), 72 hours) was 5.5 Log and the “survival (cfu/ml)” value ([3]; 60 μg/ml oxacillin + MSM (% in label), 72 hours, triplicate platings) was >3.3 × 10^5 cfu/ml. For the same molecule, the “survival, Average Log” value ([3]; 60 μg/ml oxacillin + MSM (% in label), 96 hours) was 5.5 Log, the “survival (cfu/ml)” value ([3]; 60 μg/ml oxacillin + MSM (% in label), 96 hours, triplicate platings) was >3.3 × 10^5 cfu/ml and the “survival, Average Log” value ([3]; 60 μg/ml oxacillin + MSM (% in label), 120 hours) was 5.5 Log. The “survival (cfu/ml)” value ([3]; 60 μg/ml oxacillin + MSM (% in label), 120 hours, triplicate platings) was >3.3 × 10^5 cfu/ml and the “decrease in colony forming units from the initial inoculums value” ([3]; oxacillin alone, 12 μg/ml, 30 μg/ml and 60 μg/ml) was “no significant decrease in colony forming units”.
